Tests used:
Type in all cases: cell-based
[1] = tested on: HaCaT cells (EGFR expressing cell line); experiment: HaCaT cell proliferation inhibitory activity (CellTiter-Glo, 72 hours); conditions: Homo sapiens
Outline: (§1)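 GI50 derived from % growth versus control from CellTiter-Glo luminescence, each test run three times. SK-BR-3 and BT-474 are seeded 48 h ahead at 5000/well and dosed at 0.2 nM–10 μM. N-87 (5000/well) gets […]–5 μM and HaCaT (3000/well) gets 0.8 nM–45 μM, both seeded 24 h ahead.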

[2] = tested on: SK-BR-3 cells (HER2 overexpressing cell line); experiment: SK-BR-3 cell proliferation inhibitory activity (CellTiter-Glo, 120 hours); conditions: Homo sapiens
Outline: as §1

[3] = tested on: N-87 cells (HER2 overexpressing cell line); experiment: N-87 cell proliferation inhibitory activity (CellTiter-Glo, 72 hours)
Experimental: To evaluate the cell proliferation inhibitory activity of the compound according to the present invention on HER2 and EGFR kinases, the following method was performed using HER2 overexpressing cell lines (SK-BR-3, BT-474, and N-87) and EGFR expressing cell line (HaCaT).
McCOY'S 5A supplemented with 10% FBS was used for SK-BR-3 cells, RPMI-1640 medium supplemented with 20% FBS was used for BT-474 cancer cells, and RPMI-1640 medium supplemented with 10% FBS was used for N-87 cancer cells. DMEM supplemented with 10% FBS was used for HaCaT cells.
For SK-BR-3 cells, 5000 cells were aliquoted into each well of a white clear bottom 96 well plate (Corning) 48 hours before treatment with the compounds of Examples. For BT-474 cells, 5000 cells were aliquoted into each well of a white clear bottom 96 well plate (Corning) 48 hours before treatment with the compounds of Examples. For N-87 cells, 5000 cells were aliquoted into each well of a white clear bottom 96 well plate (Corning) 24 hours before treatment with the compounds of Examples. For HaCaT cells, 3000 cells were aliquoted into each well of a white clear bottom 96 well plate (Corning) 24 hours before treatment with the compounds of Examples. For SK-BR-3 cells and BT-474 cells, the compounds of Examples were diluted in dimethyl sulfoxide (three-fold dilution, a total of 11 concentrations) and injected each in an amount of 1 μl to a final concentration of 0.2 nM to 10 μM. For N-87 cells, the compounds of Examples were diluted in dimethyl sulfoxide (five-fold dilution, a total of 11 concentrations) and injected each in an amount of 0.5 μl to a final concentration of […] to 5 μM. For HaCaT cells, the compounds of Examples were diluted in dimethyl sulfoxide (three-fold dilution, a total of 11 concentrations) and injected each in an amount of 0.5 μl to a final concentration of 0.8 nM to 45 μM. For the measurement of living cells, the cells were stored at room temperature for 10 minutes using CellTiter-Glo cell viability reagent (Promega) after a certain period of time (SK-BR-3: 120 hours, BT-474: 120 hours, N-87: 72 hours, and HaCaT: 72 hours) post treatment with the compounds of Examples, and the luminescence intensity thereof was measured using a reader (SynergyNeo, Biotek). Each test was repeated three times.
The result values were calculated as a cell growth rate (%) compared to those of the control group. A graph was created using the GraphPad Prism version 5.0 program, and GI50 values were calculated.

[4] = tested on: BT-474 cells (HER2 overexpressing cell line); experiment: BT-474 cell proliferation inhibitory activity (CellTiter-Glo, 120 hours); conditions: Homo sapiens
Outline: as §1

Row | GI50 [2] [µM] | GI50 [4] [µM] | Compound | GI50 [1] [µM] | GI50 [3] [µM]
1 | ≤ 0.15 | ≤ 0.15 | C=CC(=O)N1CC[C@H](Oc2cc3c(Nc4cc(-c5ccco5)ccc4OC)ncnc3cc2OC)[C@H](F)C1 (relative stereo) [Example 181, 1-(cis-3-fluoro-4-((4-((5-(furan-2-yl)-2-methoxyphenyl)amino)-7-methoxy-quinazolin-6-yl)oxy)piperidin-1-yl)prop-2-en-1-one] | ≤ 0.15 | ≤ 0.15
2 | ≤ 0.15 | ≤ 0.15 | C=CC(=O)N1CC[C@H](Oc2cc3c(Nc4cc(-c5ccc(F)cc5F)ccc4OC)ncnc3cc2OC)[C@H](F)C1 (relative stereo) [Example 182, 1-(cis-4-((4-((2′,4′-difluoro-4-methoxy-[1,1′-biphenyl]-3-yl)amino)-7-methoxy-quinazolin-6-yl)oxy)-3-fluoropiperidin-1-yl)prop-2-en-1-one] | ≤ 0.15 | ≤ 0.15
3 | ≤ 0.15 | ≤ 0.15 | C=CC(=O)N1CC(Oc2cc3c(Nc4cc(-c5cccc(C(F)(F)F)c5F)ccc4OC)ncnc3cc2OC)C1 [Example 17, 1-(3-((4-((2′-fluoro-4-methoxy-3′-(trifluoromethyl)-[1,1′-biphenyl]-3-yl)amino)-7-methoxy-quinazolin-6-yl)oxy)azetidin-1-yl)prop-2-en-1-one] | 0.15 to 1 | ≤ 0.15
4 | ≤ 0.15 | ≤ 0.15 | C=CC(=O)N1CC(Oc2cc3c(Nc4cc(-c5cccc(C#N)c5F)ccc4OC)ncnc3cc2OC)C1 [Example 21, 3'-((6-((1-acryloylazetidin-3-yl)oxy)-7-methoxy-quinazolin-4-yl)amino)-2-fluoro-4′-methoxy-[1,1′-biphenyl]-3-carbonitrile] | ≤ 0.15 | ≤ 0.15
5 | ≤ 0.15 | ≤ 0.15 | C=CC(=O)N1CC(Oc2cc3c(Nc4cc(-c5ccc(F)nc5)ccc4OC)ncnc3cc2OC)C1 [Example 22, 1-(3-( (4-((5-(6-fluoropyridin-3-yl)-2-methoxyphenyl)amino)-7-methoxy-quinazolin-6-yl)oxy)azetidin-1-yl)prop-2-en-1-one] | ≤ 0.15 | ≤ 0.15
6 | ≤ 0.15 | ≤ 0.15 | C=CC(=O)N1CC(Oc2cc3c(Nc4cc(-c5ccccc5F)ccc4OC)ncnc3cc2OC)C1 [Example 24, 1-(3-((4-((2′-fluoro-4-methoxy-[1,1′-biphenyl]-3-yl)amino)-7-methoxy-quinazolin-6-yl)oxy)azetidin-1-yl)prop-2-en-1-one] | ≤ 0.15 | ≤ 0.15
7 | ≤ 0.15 | ≤ 0.15 | C=CC(=O)N1CCC(Oc2cc3c(Nc4cc(-c5ccc(F)cc5)ccc4OC)ncnc3cc2OC)CC1 [Example 67, 1-(4-((4-((4′-fluoro-4-methoxy-[1,1′-biphenyl]-3-yl)amino)-7-methoxy-quinazolin-6-yl)oxy)piperidin-1-yl)prop-2-en-1-one] | 0.15 to 1 | ≤ 0.15
8 | ≤ 0.15 | ≤ 0.15 | C=CC(=O)N1CCC(Oc2cc3c(Nc4cc(-c5ccsc5)ccc4OC)ncnc3cc2OC)CC1 [Example 79, 1-(4-((7-methoxy-4-((2-methoxy-5-(thiophen-3-yl)phenyl)amino)quinazolin-6-yl)oxy)piperidin-1-yl)prop-2-en-1-one] | ≤ 0.15 | ≤ 0.15
9 | ≤ 0.15 | ≤ 0.15 | C=CC(=O)N1CCC(F)(F)C(Oc2cc3c(Nc4cc(-c5ccco5)ccc4OC)ncnc3cc2OC)C1 (stereo not shown) [Example 113, 1-(4,4-difluoro-3-((4-((5-(furan-2-yl)-2-methoxyphenyl)amino)-7-methoxy-quinazolin-6-yl)oxy)piperidin-1-yl)prop-2-en-1-one] | ≤ 0.15 | ≤ 0.15
10 | ≤ 0.15 | ≤ 0.15 | C=CC(=O)N1CCC(Oc2cc3c(Nc4cc(-c5cccc(C(F)(F)F)c5F)ccc4OC)ncnc3cc2OC)CC1 [Example 138, 1-(4-((4-((2′-fluoro-4-methoxy-3′-(trifluoromethyl)-[1,1′-biphenyl]-3-yl)amino)-7-methoxy-quinazolin-6-yl)oxy)piperidin-1-yl)prop-2-en-1-one] | 0.15 to 1 | ≤ 0.15
11 | ≤ 0.15 | ≤ 0.15 | C=CC(=O)N1CCC(Oc2cc3c(Nc4cc(-c5cccc(C(F)(F)F)c5)ccc4OC)ncnc3cc2OC)CC1 [Example 139, 1-(4-((7-methoxy-4-((4-methoxy-3′-(trifluoromethyl)-[1,1′-biphenyl]-3-yl)amino)quinazolin-6-yl)oxy)piperidin-1-yl)prop-2-en-1-one] | 0.15 to 1 | ≤ 0.15
12 | ≤ 0.15 | ≤ 0.15 | C=CC(=O)N1CCC(Oc2cc3c(Nc4cc(-c5ccco5)c(F)cc4OC)ncnc3cc2OC)C(F)C1 (stereo not shown) [Example 140, 1-(3-fluoro-4-((4-((4-fluoro-5-(furan-2-yl)-2-methoxyphenyl)amino)-7-methoxy-quinazolin-6-yl)oxy)piperidin-1-yl)prop-2-en-1-one] | ≤ 0.15 | ≤ 0.15
13 | ≤ 0.15 | ≤ 0.15 | C=CC(=O)N1CCC(Oc2cc3c(Nc4cc(-c5ccc(F)c(C(F)(F)F)c5)ccc4OC)ncnc3cc2OC)CC1 [Example 142, 1-(4-((4-((4′-fluoro-4-methoxy-3′-(trifluoromethyl)-[1,1′-biphenyl]-3-yl)amino)-7-methoxy-quinazolin-6-yl)oxy)piperidin-1-yl)prop-2-en-1-one] | 0.15 to 1 | ≤ 0.15
14 | ≤ 0.15 | ≤ 0.15 | C=CC(=O)N1CCC(Oc2cc3c(Nc4cc(-c5cccc(N(C)C)c5)ccc4OC)ncnc3cc2OC)CC1 [Example 151, 1-(4-((4-((3′-(dimethylamino)-4-methoxy-[1,1′-biphenyl]-3-yl)amino)-7-methoxy-quinazolin-6-yl)oxy)piperidin-1-yl)prop-2-en-1-one] | 0.15 to 1 | ≤ 0.15
15 | ≤ 0.15 | ≤ 0.15 | C=CC(=O)N1CCC(Oc2cc3c(Nc4cc(-c5cc(N)c(F)cc5C)ccc4OC)ncnc3cc2OC)CC1 [Example 161, 1-(4-((4-((5′-amino-4′-fluoro-4-methoxy-2′-methyl-[1,1′-biphenyl]-3-yl)amino)-7-methoxy-quinazolin-6-yl)oxy)piperidin-1-yl)prop-2-en-1-one] | ≤ 0.15 | ≤ 0.15
16 | ≤ 0.15 | 0.15 to 1 | C=CC(=O)N1CCC(Oc2cc3c(Nc4cc(-c5cccc(N)c5F)ccc4OC)ncnc3cc2OC)CC1 [Example 163, 1-(4-((4-((3′-amino-2′-fluoro-4-methoxy-[1,1′-biphenyl]-3-yl)amino)-7-methoxy-quinazolin-6-yl)oxy)piperidin-1-yl)prop-2-en-1-one] | 0.15 to 1 | ≤ 0.15
17 | ≤ 0.15 | ≤ 0.15 | C=CC(=O)N1CCC(Oc2cc3c(Nc4cc(-c5ccc(F)cc5F)ccc4OC4CC4)ncnc3cc2OC)CC1 [Example 260, 1-(4-((4-((4-cyclopropoxy-2′,4′-difluoro-[1,1′-biphenyl]-3-yl)amino)-7-methoxyquinazolin-6-yl)oxy)piperidin-1-yl)prop-2-en-1-one] | ≤ 0.15 | ≤ 0.15
18 | ≤ 0.15 | ≤ 0.15 | C=CC(=O)N1CCC(Nc2cc3c(Nc4cc(-c5ccco5)ccc4OC)ncnc3cc2OC2CCOC2)CC1 (stereo not shown) [Example 270, 1-(4-((4-((5-(furan-2-yl)-2-methoxyphenyl)amino)-7-((tetrahydrofuran-3-yl)oxy)quinazolin-6-yl)amino)piperidin-1-yl)prop-2-en-1-one] | ≤ 0.15 | ≤ 0.15
19 | ≤ 0.15 | ≤ 0.15 | C=CC(=O)N1CCC(Nc2cc3c(Nc4cc(-c5ccco5)ccc4OC)ncnc3cc2OCCCN2CCOCC2)CC1 [Example 278, 1-(4-((4-((5-(furan-2-yl)-2-methoxyphenyl)amino)-7-(3-morpholinopropoxy)quinazolin-6-yl)amino)piperidin-1-yl)prop-2-en-1-one] | ≤ 0.15 | ≤ 0.15
